Measurements as given in PMC4999093, “Novel NAD^+-Farnesal Dehydrogenase from Polygonum minus Leaves. Purification and Characterization of Enzyme in Juvenile Hormone III Biosynthetic Pathway in Plant” (PLoS ONE, 2016).

System: T1, NAD^+-farnesal dehydrogenase (P. minus farnesal dehydrogenase)
T1 construct: native enzyme purified from leaves, untagged
Assay: NADH formation at […] nm, Lineweaver-Burk
Type: biochemical, Persicaria minor
Settings: 100 mM glycine-NaOH pH 9.5, 35°C

SMILES: CC(C)=CCCC(C)=CC=O (mixture of isomers) [Citral, 3,7-dimethyl-2,6-octadienal]
- Km (1.0 mM NAD+, substrate is a mixture of geranial and neral): 690 µM

SMILES: CC(C)=CCC/C(C)=C/CC/C(C)=C/C=O (mixture of isomers) [Farnesal, 3,7,11-trimethyl-2,6,10-dodecatrienal]
- Km (1.0 mM NAD+, substrate is a mixture of isomers): 130 µM

SMILES: NC(=O)c1ccc[n+]([C@@H]2O[C@H](COP(=O)(O)OP(=O)(O)OC[C@H]3O[C@@H](n4cnc5c(N)ncnc54)[C@H](O)[C@@H]3O)[C@@H](O)[C@H]2O)c1 [NAD^+]
- Km (co-substrate farnesal): 310 µM

SMILES: O=C/C=C/c1ccccc1 [trans-cinnamaldehyde]
- Km (1.0 mM NAD+): 860 µM

SMILES: C/C(C=O)=C\c1ccccc1 [α-methylcinnamaldehyde]
- Km (1.0 mM NAD+): 1280 µM
